Source: patent US20060246149A1, “Antimicrobial pigments” (priority 2003, published 2006)

Columns and labels:
Test in all cases: challenge test, germ count by Agar plates method
Type in all cases: cell-based
Details in all cases: 8% aqueous suspension
[1] = system: Candida albicans ATCC 10231
Method: (§1) A standard procedure to measure the anti-microbial activity of substances was used (challenge tests). A suspension of test organisms (10^5 to 10^6 germs/ml) is inoculated into a recipient containing already the substance to be tested. Samples of the inoculated suspension are taken and the number of germs is measured thanks to the Agar plates method. Germ counts is performed at t=0, t=24 h after the inoculation, t=48 h after the inoculation, t=7 days after the inoculation, t=14 days after the inoculation.
(§2) Sterile water containing 8% w/w of treated and untreated carriers were each investigated.

Escheria coli ATCC8739 = system: Escheria coli ATCC8739
Method: as §1, §2

[2] = system: Pseudomonas aeruginosa ATCC 9027
Method: as §1, §2

[3] = system: Staphylococcus aureus ATCC 6538
Method: as §1, §2

silver oxide [0.02% Ag2O]
0 germs/ml: Germs Number/ml after 48 h ([1]; 48 h) | Germs Number/ml after 7 d ([1]; 7 d) | Germs Number/ml after 14 d ([1]; 14 d) | Germs Number/ml after 24 h (Escheria coli ATCC8739; 24 h) | Germs Number/ml after 48 h (Escheria coli ATCC8739; 48 h) | Germs Number/ml after 7 d (Escheria coli ATCC8739; 7 d) | Germs Number/ml after 14 d (Escheria coli ATCC8739; 14 d) | Germs Number/ml after 24 h ([2]; 24 h) | Germs Number/ml after 48 h ([2]; 48 h) | Germs Number/ml after 7 d ([2]; 7 d) | Germs Number/ml after 14 d ([2]; 14 d) | Germs Number/ml after 24 h ([3]; 24 h) | Germs Number/ml after 48 h ([3]; 48 h) | Germs Number/ml after 14 d ([3]; 14 d)
